Data as given in patent publication US20060178307A1, “Modulation of NMDA receptor currents via orexin receptor and/or CRF receptor” (priority 2005, published 2006).
“Also recorded” adds a separate entry of the source. Where no end group is shown, it is not given here.

What was measured:
locomotor activity = assay: Locomotor sensitization to cocaine, intra-VTA OXR1 antagonist, 7-day paradigm; format: in vivo, Sprague-Dawley rats
Method: Male Sprague-Dawley rats (250 grams) were implanted with bilateral cannulae directed at the VTA (AP, −5.2; ML, ±0.5, DV −8.0). Following recovery from surgery, animals were tested in a cocaine sensitization assay similar to that used for systemic administration of the OXR1 antagonist, but with two changes: a 7-day sensitization paradigm was used, and the OXR1 antagonist SB 334867 was microinjected directly into the VTA (6 μg/hemisphere in 300 nL solution composed of 10% DMSO in water). All other methods for habituation and data collection were identical to that described above. Rats were deeply anesthetized with pentobarbital, and perfused with a 10% formaldehyde solution. Brains were cryoprotected in 25% sucrose, 40 μm coronal sections were cut on a freezing microtome, and sections were mounted, dried and coverslipped. Injection sites were located under a light microscope and recorded on atlas figures adapted from Paxinos and Watson (1997).

[1] = tested on: AMPAR/NMDAR ratio of EPSCs in VTA dopamine cells; assay: AMPAR/NMDAR ratio in VTA slices 24 hr after 5-day in vivo treatment; design: species or system rat; settings: 5 days
Method: The next study investigated whether orexin signaling in the VTA is required for the long-term plasticity associated with the development of behavioral sensitization. Long-term synaptic plasticity at excitatory synapses on VTA neurons was examined 24 hr after a 5-day treatment of cocaine (15 mg/kg) or saline (0.9%), a time course shown to induce long-lasting locomotor sensitization to cocaine (Thomas et al., 2001), with or without the OXR1 antagonist, SB 334867 (10 mg/kg, FIG. 5). To assay for synaptic plasticity, the relative contributions of AMPARs and NMDARs to EPSCs recorded in VTA dopamine cells were compared. Consistent with the potentiation observed following acute and 7-day cocaine treatments (Borgland et al., 2004), 5-day treatment with cocaine potentiated the AMPAR/NMDAR ratio compared to saline controls (FIG. 5A, saline: 0.4±0.07, n=4; cocaine: 0.8±0.1, n=4, p<0.05). This potentiation of synaptic plasticity was blocked by 5-day treatment with the OXR1 antagonist, SB 334867, administered 15 min prior to cocaine or saline (FIG. 5A, saline+SB334867: 0.4±0.02, n=5 vs. cocaine+SB334867: 0.5±0.08, n=11, p>0.05). Since OXR1 antagonists block cocaine-mediated potentiation of the AMPAR/NMDAR ratio, orexin A may either facilitate cocaine-mediated synaptic plasticity or enhance synaptic transmission itself. A 5-min orexin A application was performed to determine whether this caused changes in AMPAR/NMDAR ratio either 15 min or 3-4 hours after application (FIG. 5B).
To calculate the AMPAR/NMDAR ratio, an average of 12 EPSCs at +40 mV was computed before and after application of the NMDAR blocker, AP5 (50 μM) for 5 min. NMDAR responses were calculated by subtracting the average response in the presence of AP5 (AMPAR only) from that seen in its absence; the peak of the AMPAR EPSC was divided by the peak of the NMDAR EPSC to yield an AMPAR/NMDAR ratio.
Male Sprague-Dawley Rats (P21-P30; Charles River, N.C.) were singly housed with food and water available ad libitum. A 12 hr light/dark cycle was used, with the lights on at 7:00 A.M. All cocaine injections and behavioral testing were performed during the light cycle for consecutive days. The four treatment groups consisted of rats given 5 daily i.p. injections of SB 334867 (10 mg/kg) 15 min preceding i.p. injection of cocaine (15 mg/kg) or saline (0.9% NaCl), or i.p. injections of vehicle (10% DMSO and 25% β-hydroxy cyclodextrin in saline) 15 min preceding i.p. injection of cocaine or saline. […] Locomotor activity was measured in 17″×17″ chambers lined with three 16-beam I/R arrays. […] Distance traveled was measured using Open Field Activity Software (Med Associates, Inc) and analyzed for estimates of locomotion based on the movement of a given distance and resting delay (movement in a given period of time).

reinforcement for food = assay: Operant food self-administration, progressive ratio schedule; format: in vivo, rats
Method: After 3-4 weeks of self-administration of cocaine (0.5 mg/infusion) ramping from fixed ratio of 1 lever press (FR1) to receive a reward to a stable fixed ratio of 5 lever presses to receive a reward (FR5) schedule, animals lever pressed for cocaine on a progressive ratio schedule for 4 days. On the second and third day, each animal received a vehicle injection (i.p.), and on the fourth day the animals received an injection (i.p.) of the OXR1 antagonist: SB334867, 10 mg/kg. As a control, orexin modulation of food self-administration was examined under the same paradigm. For food self-administration, animals were trained to an FR5 schedule for food pellets.
This effect of the OXR1 antagonist was not observed with respect to reinforcement for food. Rats were trained to lever press for food on an […] schedule, and subsequently a progressive ratio schedule. Rats were given vehicle on the 2nd and 3rd day of progressive ratio testing and then SB 334867 (10 mg/kg, i.p.) on the 4th day.

NMDA-induced current = assay: Holding current change on bath-applied NMDA; format: cell-based, rat; settings: NMDA 50 μM 30 sec
Method: As a final test to determine at what time point after orexin treatment NMDARs were altered, NMDA (50 μM, 30 sec) was bath-applied, and the change in holding current was recorded. There was a significant increase in NMDA-induced current 15 min after orexin A (100 nM) application (orexin A: 344±27 pA, n=7; control: 245±43, n=9, p<0.05, FIG. 7H), but not after 3-4 hours (orexin A: 305±59, n=6; p>0.05, FIG. 7I).

[2] = 10 mg/kg i.p. on 4th day of progressive ratio, n=10

Compound	development of locomotor sensitization to cocaine (locomotor activity; daily intra-VTA 6 μg/hemisphere prior to cocaine 15 mg/kg, 7 days)	mean locomotor distance on day 7 (locomotor activity; intra-VTA OXR1 antagonist 6 μg/hemisphere + cocaine) [cm]	expression of pre-existing cocaine sensitization (locomotor activity; single intra-VTA injection)	effect on cocaine-induced potentiation of AMPAR/NMDAR ratio ([1]; 10 mg/kg i.p. 15 min prior to cocaine)	AMPAR/NMDAR ratio ([1]; cocaine 15 mg/kg + SB334867 10 mg/kg 15 min prior, n=11)	AMPAR/NMDAR ratio ([1]; saline + SB334867 10 mg/kg 15 min prior, n=5)	breakpoint (food) (reinforcement for food; [2])	total number of food pellets received (reinforcement for food; [2])	reinforcement for food (reinforcement for food; 10 mg/kg i.p., hydrochloride)	NMDA-induced current (NMDA-induced current; 3-4 hours after orexin A, n=6) [pA]	NMDA-induced current (NMDA-induced current; 15 min after orexin A 100 nM, n=7) [pA]
Cc1nc2ccc(NC(=O)Nc3ccnc4cccnc34)cc2o1.Cl [SB 334867, 1-(2-methylbenzoxazol-6-yl)-3-[1,5]naphthyridin-4-yl urea hydrochloride]	abolished	19274±4559	did not affect	blocked	0.5±0.08	0.4±0.02	unaltered	not altered	not observed; also recorded: did not alter		
orexin A: neuropeptide synthesized in neurons of the LH; orexin receptor agonist selective for the OXR1 receptor (QPLPDCCRQKTCSCRLYELLHGAGNHAAGILTL; ends and bridges not checked; cysteine pairing not given here; UniProt O43612 34-66, looked up)										305±59	344±27
